Experimental data from ChEMBL document CHEMBL3885881, “DrugMatrix”.

Organism: Rattus norvegicus
Assay: DrugMatrix - Regimen: Daily Repeat
Type: toxicity, organism-based, Sprague-Dawley
Parameters: regimen Daily Repeat, gender Male, age 6-8 weeks
Conditions: in vivo, po, route oral GAVAGE, […]; for ABSOLUTE BASOPHIL / ABSOLUTE EOSINOPHIL / ABSOLUTE LYMPHOCYTE / ABSOLUTE MONOCYTE / ABSOLUTE SEGMENTED NEUTROPHIL / BASOPHIL / EOSINOPHIL / ERYTHROCYTE COUNT / HEMATOCRIT / HEMOGLOBIN / LEUKOCYTE COUNT / LYMPHOCYTE / MEAN CORPUSCULAR HEMOGLOBIN / MEAN CORPUSCULAR HEMOGLOBIN CONCENTRATION / MEAN CORPUSCULAR VOLUME / MONOCYTE / NEUTROPHIL / NUCLEATED RED BLOOD CELLS / PLATELET COUNT: tissue Blood; for ALANINE AMINOTRANSFERASE / ALBUMIN / ALKALINE PHOSPHATASE / ASPARTATE AMINOTRANSFERASE / BLOOD UREA NITROGEN / CARBON DIOXIDE / CHLORIDE / CHOLESTEROL / CREATININE / GLUCOSE / LACTATE DEHYDROGENASE / LIPASE / PHOSPHORUS / POTASSIUM / SODIUM / TOTAL BILIRUBIN / TOTAL PROTEIN / URIC ACID: tissue Plasma
[1] = 0 mg/kg, 72 h, dose level Control, time 3 day
[2] = 0 mg/kg, 120 h, dose level Control, time 5 day
[3] = 250 mg/kg, 72 h, dose level Low, time 3 day

SMILES: CC(C)Cc1ccc(CC(=O)O)cc1 [IBUFENAC]
- ABSOLUTE BASOPHIL [1]: 0 CELLS/uL
- ABSOLUTE EOSINOPHIL [1]: 255.83 CELLS/uL
- ABSOLUTE LYMPHOCYTE [1]: 11617.83 CELLS/uL
- ABSOLUTE MONOCYTE [1]: 307.5 CELLS/uL
- ABSOLUTE SEGMENTED NEUTROPHIL [1]: 1902.17 CELLS/uL
- BASOPHIL [1]: 0%
- EOSINOPHIL [1]: 1.83%
- ERYTHROCYTE COUNT [1]: 5.58 x10E6/uL
- HEMATOCRIT [1]: 33.62%
- HEMOGLOBIN [1]: 12.42 G/DL
- LEUKOCYTE COUNT [1]: 14.08 x10E3/uL
- LYMPHOCYTE [1]: 82.67%
- MEAN CORPUSCULAR HEMOGLOBIN [1]: 22.32 pg
- MEAN CORPUSCULAR HEMOGLOBIN CONCENTRATION [1]: 36.98 G/DL
- MEAN CORPUSCULAR VOLUME [1]: 60.4 fL
- MONOCYTE [1]: 2.17%
- NEUTROPHIL [1]: 13.33%
- NUCLEATED RED BLOOD CELLS [1]: 0 /100WBC
- PLATELET COUNT [1]: 1154.67 x10E3/uL
- ALANINE AMINOTRANSFERASE [1]: 64.67 u/L
- ALBUMIN [1]: 4.18 G/DL
- ALKALINE PHOSPHATASE [1]: 382.67 u/L
- ASPARTATE AMINOTRANSFERASE [1]: 123.17 u/L
- BLOOD UREA NITROGEN [1]: 17.67 mg/dL
- CARBON DIOXIDE [1]: 24.33 mmol/L
- CHLORIDE [1]: 101.67 MEQ/L
- CHOLESTEROL [1]: 76.5 mg/dL
- CREATININE [1]: 0.2 mg/dL
- GLUCOSE [1]: 175.33 mg/dL
- LACTATE DEHYDROGENASE [1]: 331 u/L
- LIPASE [1]: 10.17 u/L
- PHOSPHORUS [1]: 12.77 mg/dL
- POTASSIUM [1]: 6.65 MEQ/L
- SODIUM [1]: 145.8 MEQ/L
- TOTAL BILIRUBIN [1]: 0.2 mg/dL
- TOTAL PROTEIN [1]: 6.07 G/DL
- URIC ACID [1]: 1.78 mg/dL
- ABSOLUTE BASOPHIL [2]: 0 CELLS/uL
- ABSOLUTE EOSINOPHIL [2]: 155.33 CELLS/uL
- ABSOLUTE LYMPHOCYTE [2]: 12695.83 CELLS/uL
- ABSOLUTE MONOCYTE [2]: 475.67 CELLS/uL
- ABSOLUTE SEGMENTED NEUTROPHIL [2]: 1989.83 CELLS/uL
- BASOPHIL [2]: 0%
- EOSINOPHIL [2]: 1%
- ERYTHROCYTE COUNT [2]: 5.75 x10E6/uL
- HEMATOCRIT [2]: 34.98%
- HEMOGLOBIN [2]: 12.73 G/DL
- LEUKOCYTE COUNT [2]: 15.32 x10E3/uL
- LYMPHOCYTE [2]: 83%
- MEAN CORPUSCULAR HEMOGLOBIN [2]: 22.17 pg
- MEAN CORPUSCULAR HEMOGLOBIN CONCENTRATION [2]: 36.4 G/DL
- MEAN CORPUSCULAR VOLUME [2]: 60.92 fL
- MONOCYTE [2]: 3%
- NEUTROPHIL [2]: 13%
- NUCLEATED RED BLOOD CELLS [2]: 0 /100WBC
- PLATELET COUNT [2]: 1081.33 x10E3/uL
- ALANINE AMINOTRANSFERASE [2]: 55 u/L
- ALBUMIN [2]: 4.12 G/DL
- ALKALINE PHOSPHATASE [2]: 354.67 u/L
- ASPARTATE AMINOTRANSFERASE [2]: 91 u/L
- BLOOD UREA NITROGEN [2]: 15 mg/dL
- CARBON DIOXIDE [2]: 27.17 mmol/L
- CHLORIDE [2]: 100.5 MEQ/L
- CHOLESTEROL [2]: 71.5 mg/dL
- CREATININE [2]: 0.18 mg/dL
- GLUCOSE [2]: 169.17 mg/dL
- LACTATE DEHYDROGENASE [2]: 324 u/L
- LIPASE [2]: 10.5 u/L
- PHOSPHORUS [2]: 12.07 mg/dL
- POTASSIUM [2]: 6.58 MEQ/L
- SODIUM [2]: 141.92 MEQ/L
- TOTAL BILIRUBIN [2]: 0.12 mg/dL
- TOTAL PROTEIN [2]: 5.88 G/DL
- URIC ACID [2]: 1.6 mg/dL
- ABSOLUTE BASOPHIL [3]: 0 CELLS/uL
- ABSOLUTE EOSINOPHIL [3]: 268.67 CELLS/uL
- ABSOLUTE LYMPHOCYTE [3]: 13501.33 CELLS/uL
- ABSOLUTE MONOCYTE [3]: 489 CELLS/uL
- ABSOLUTE SEGMENTED NEUTROPHIL [3]: 2041 CELLS/uL
- BASOPHIL [3]: 0%
- EOSINOPHIL [3]: 1.67%
- ERYTHROCYTE COUNT [3]: 5.57 x10E6/uL
- HEMATOCRIT [3]: 33.83%
- HEMOGLOBIN [3]: 12.4 G/DL
- LEUKOCYTE COUNT [3]: 16.3 x10E3/uL
- LYMPHOCYTE [3]: 83%
- MEAN CORPUSCULAR HEMOGLOBIN [3]: 22.23 pg
- MEAN CORPUSCULAR HEMOGLOBIN CONCENTRATION [3]: 36.67 G/DL
- MEAN CORPUSCULAR VOLUME [3]: 60.7 fL
- MONOCYTE [3]: 3%
- NEUTROPHIL [3]: 12.33%
- NUCLEATED RED BLOOD CELLS [3]: 0 /100WBC
- PLATELET COUNT [3]: 1296 x10E3/uL
- ALANINE AMINOTRANSFERASE [3]: 64.67 u/L
- ALBUMIN [3]: 4.3 G/DL
- ALKALINE PHOSPHATASE [3]: 362.33 u/L
- ASPARTATE AMINOTRANSFERASE [3]: 94.67 u/L
- BLOOD UREA NITROGEN [3]: 15.67 mg/dL
- CARBON DIOXIDE [3]: 26.67 mmol/L
- CHLORIDE [3]: 103 MEQ/L
- CHOLESTEROL [3]: 79.33 mg/dL
- CREATININE [3]: 0.15 mg/dL
- GLUCOSE [3]: 164.67 mg/dL
- LACTATE DEHYDROGENASE [3]: 128.67 u/L
- LIPASE [3]: 9.67 u/L
- PHOSPHORUS [3]: 11.4 mg/dL
- POTASSIUM [3]: 6.53 MEQ/L
- SODIUM [3]: 146.97 MEQ/L
- TOTAL BILIRUBIN [3]: 0.17 mg/dL
- TOTAL PROTEIN [3]: 6.03 G/DL
- URIC ACID [3]: 1.43 mg/dL
